Measured values published in the NIST ThermoML archive (doi:10.1021/je020189p).
Several values for one entry are separate records, joined by “and”; a condition that tells them apart may be missing. Equal values may be shown once.

Conditions: Crystal

[I][Tb]([I])[I] [terbium triiodide]
Conditions | vapor or sublimation pressure
861 K | 1.91e-05 kPa
871 K | 2.82e-05 kPa
879 K | 3.31e-05 kPa
883 K | 4.27e-05 kPa
884 K | 3.8e-05 kPa and 5.01e-05 kPa
885 K | 5.01e-05 kPa
891 K | 4.79e-05 kPa
892 K | 6.17e-05 kPa
895 K | 7.08e-05 kPa
897 K | 6.61e-05 kPa and 5.75e-05 kPa
900 K | 0.0001 kPa
902 K | 9.12e-05 kPa
903 K | 7.59e-05 kPa
907 K | 0.000126 kPa
909 K | 0.000115 kPa and 9.55e-05 kPa
911 K | 0.000151 kPa
912 K | 0.000132 kPa
913 K | 0.000123 kPa
915 K | 0.000115 kPa
917 K | 0.000174 kPa
920 K | 0.000141 kPa
921 K | 0.0002 kPa
922 K | 0.000186 kPa
926 K | 0.000209 kPa
927 K | 0.000182 kPa and 0.000251 kPa
928 K | 0.000251 kPa
929 K | 0.000229 kPa
930 K | 0.00024 kPa
931 K | 0.000209 kPa
935 K | 0.00024 kPa
936 K | 0.000339 kPa
937 K | 0.000347 kPa
938 K | 0.000316 kPa
939 K | 0.000339 kPa
940 K | 0.000339 kPa and 0.000282 kPa
942 K | 0.000676 kPa
944 K | 0.000447 kPa
945 K | 0.000479 kPa
947 K | 0.000407 kPa and 0.000363 kPa
948 K | 0.000468 kPa and 0.000427 kPa
951 K | 0.00055 kPa
952 K | 0.001 kPa
953 K | 0.000447 kPa and 0.000603 kPa
955 K | 0.000955 kPa
958 K | 0.000661 kPa and 0.000631 kPa
959 K | 0.000692 kPa and 0.000741 kPa
961 K | 0.000776 kPa
963 K | 0.000661 kPa
964 K | 0.00135 kPa
966 K | 0.000891 kPa and 0.000955 kPa
967 K | 0.000912 kPa and 0.000977 kPa
971 K | 0.00105 kPa and 0.00166 kPa and 0.001 kPa
972 K | 0.00191 kPa and 0.0012 kPa
973 K | 0.00117 kPa and 0.00115 kPa and 0.000955 kPa
975 K | 0.00186 kPa
976 K | 0.00135 kPa
977 K | 0.00141 kPa
979 K | 0.00141 kPa
980 K | 0.00148 kPa and 0.00138 kPa
981 K | 0.00123 kPa
983 K | 0.00151 kPa and 0.0024 kPa
985 K | 0.00186 kPa
986 K | 0.00182 kPa and 0.0017 kPa
987 K | 0.00288 kPa and 0.00191 kPa
988 K | 0.00288 kPa and 0.00178 kPa and 0.00155 kPa
990 K | 0.00288 kPa
992 K | 0.00234 kPa
993 K | 0.00219 kPa
994 K | 0.00229 kPa and 0.00182 kPa
995 K | 0.0024 kPa and 0.00389 kPa
998 K | 0.00282 kPa [middle of 4 runs]
1001 K | 0.00282 kPa
1002 K | 0.0024 kPa
1003 K | 0.00288 kPa and 0.00501 kPa
1004 K | 0.00479 kPa and 0.00339 kPa
1005 K | 0.00479 kPa
1006 K | 0.00309 kPa
1008 K | 0.00339 kPa and 0.00389 kPa
1009 K | 0.00282 kPa and 0.0038 kPa
1012 K | 0.00575 kPa and 0.00676 kPa
1013 K | 0.00447 kPa
1015 K | 0.00437 kPa
1016 K | 0.00708 kPa
1017 K | 0.00525 kPa
1018 K | 0.00501 kPa
1019 K | 0.00759 kPa
1020 K | 0.00912 kPa
1021 K | 0.00617 kPa
1022 K | 0.0055 kPa
1026 K | 0.00661 kPa
1027 K | 0.00977 kPa
1028 K | 0.00955 kPa
1029 K | 0.00676 kPa and 0.0117 kPa and 0.00692 kPa
1033 K | 0.00813 kPa
1036 K | 0.0129 kPa
1037 K | 0.00891 kPa and 0.0132 kPa
1039 K | 0.0162 kPa
1043 K | 0.0162 kPa
1044 K | 0.0115 kPa
1049 K | 0.0195 kPa and 0.0204 kPa and 0.0224 kPa
1050 K | 0.0135 kPa
1057 K | 0.0245 kPa
1058 K | 0.0174 kPa
1059 K | 0.0263 kPa and 0.0309 kPa
1064 K | 0.0209 kPa and 0.0309 kPa
1066 K | 0.0316 kPa and 0.038 kPa
1070 K | 0.0263 kPa
1072 K | 0.0389 kPa
1077 K | 0.0324 kPa
1078 K | 0.0457 kPa
